Key:
[1] = pH of various magnesium salts in a water solution; type: physicochemical; conditions: 12% in water
Method: The pH of magnesium carbonate, partially carbonated magnesium hydroxide, magnesium hydroxide and magnesium oxide were taken in a water solution. The pH values were recorded as follows in Table 4.

[2] = test system: Staphylococcus epidermidis (clinical isolate); test: Tier 1 Anaerobic MIC Assay; type: cell-based; conditions: raw material, BHI with 1% Tween 80, 37° C. overnight, O.D. 600
Method: (§1) Tier 1 Anaerobic MIC Assay
(§2) The data in Table 1 above was generated with the following test method. The purpose of this assay is to determine if a compound or formulation has an antimicrobial effect in vitro.
(§3) Procedure: (All procedures performed in anaerobic chamber except where noted)
(§4) Incubator at 37° C.; 20-200 ul 12 channel pipette; 5-50 ul 12 channel pipette; 1250 ul 8 channel Thermo Scientific Matrix pipette; 96 well plate shaker (located in incubator); Beckman Coulter deep well cap mat #267005; Beckman Coulter deep 96 well plates #267007; Falcon 96 well tissue culture plates #353072; Vortexer; Culture tubes/caps Disposable sterile gloves; Sterile petri dishes; Standard microbiological lab equipment (sterile pipettes, syringes, tips, loops, etc.); Glass bottles/flasks for media; Autoclave; Parafilm; Spectrophotometer.
(§5) BHI agar supplemented with 1% Tween 80
(§6) BHI media supplemented with 1% Tween 80
Staphylococcus epidermidis (clinical isolate)
(§7) Prior to testing streak organisms for isolation on BHI with 1% Tween 80 plates, wrap with parafilm and place in 37° C. incubator. When isolated colonies appear remove one representative colony from each plate and place each in 5 ml of BHI with 1% Tween 80 media. […]
(§8) In row A of a 96 deep well plate pipette 180 ul of sterile BHI with 1% Tween 80 as a negative growth control. […] The next day read the O.D. 600 on a plate reader. […]

[3] = test system: Corynebacterium mucofaciens (clinical isolate); test: Tier 1 Anaerobic MIC Assay; type: cell-based; conditions: raw material, BHI with 1% Tween 80, 37° C. overnight, O.D. 600
Method: as §1, §2, §3, §4, §5, §6
Corynebacterium mucofaciens (clinical isolate)
as §7, §8

microbial inhibition concentration (MIC), S. epidermidis [2] | microbial inhibition concentration (MIC), C. mucofaciens [3] | Structure (SMILES) | pH in water 12% Solution [1] | pH in water 12% Solution ([1]; listed as Magnesium oxide)
 |  | O=C([O-])[O-].[Mg+2] [Magnesium Carbonate] | 9.6 | 
 |  | [Mg+2].[OH-].[OH-] [Magnesium Hydroxide] | 10 | 
 |  | [O]=[Mg] [Magnesium Oxide] | 10.8 | highest pH observed
10 ppm | <5 ppm | Cc1cc(CC(C)CC(C)(C)C)n(O)c(=O)c1.NCCO (stereo not drawn) [piroctone olamine] |  | 
